Laboratory results published in publication PMC4310329, “The length of a lantibiotic hinge region has profound influence on antimicrobial activity and host specificity” (Frontiers in Microbiology, 2015).

Assays:
S. aureus = experiment: Agar well diffusion assay; type: cell-based, Staphylococcus aureus; details: 20 °C; estimated from halo diameter by nisin standard curve, relative to wt
Procedure: (§1) L. lactis strains were cultured in M17 broth supplemented with 0.5% (w/v) glucose (GM17) or GM17 agar for genetic manipulation or in minimal expression medium (MEM) for protein expression at 30°C (Rink et al., [2005]). E. faecalis, S. aureus, S. pneumonia, and L. monocytogenes were grown in GM17 at 37°C or GM17 agar at different temperatures for agar diffusion assay. M. luteus was grown in Luria-Bertani broth shaken (200 rpm) at 30°C or LB agar at 20°C for agar diffusion assay. Bacillus strains were cultured in Brain Heart Infusion (BHI) shaken (200 rpm) or BHI agar at different temperatures for agar diffusion assay.
(§2) For the agar well diffusion assay, the same cultures as in the MIC value test were used and diluted 200 times with solid media. Identical sizes of wells (7.5 mm diameter) were made and 2 μg of hinge region analogs dissolved in 20 μl 0.05% acetic acid were added. The plates were incubated at different temperatures for at least 1 day until apparent halos appeared. For activity test at low temperature, the indicators were diluted in the same way but poured into smaller plates (52 mm diameter). The plates were incubated at 4°C overnight before the peptides were added. B. sporothermodurans IC4 and B. cereus 4153 were first incubated with the peptides at 4°C for 2 weeks then moved to 30°C and incubated overnight. The diameters of the halos were measured.
(§3) The antimicrobial activity of the hinge region analogs in solid media were tested by an agar well diffusion assay. The diameters of the halos were measured and the residual activity of the analogs were estimated according to the formula of the relationship between the concentration of nisin and the sizes of halos. We made use of the fact that the size of the halo is directly related to the log of nisin concentration. Of course this is an estimate of activity of the variants because any changes in diffusion of the variant bacteriocin or growth rates of indicator bacteria during the assay could also affect the size of the halo. (Table 5 and Supplementary Figure 1). The plates were shown in supplementary data (Supplementary Figures 2–8). […] And against L. lactis at 20°C, the inhibition zone was larger than nisin. […] The M. luteus grows quite fast at room temperature and only the +2 variant retained 55% of the activity of nisin. […]
(§4) To evaluate the activity of nisin on the agar plate, an agar well diffusion assay with gradient of nisin against Lactococcus lactis ( with two plasmids) was performed ( Supplementary Figur e 1 A). The diameter of the halos were measured (Supplementary Figure 1B). […]
(§5) the concentration of nisin is in liner relationship with diameter of the halos ( Supplementary Fi g u re 1C). According to the formula (1) , the relative activity of the peptides compared to nisin can be calculated b y the formula ( 2) .
(§6) Supplementary Figure 1. Relationship between concentration of nisin and diameter of the halos. (A) Agar well diffusion assay. Gradient concentration of nisin were made and dissolved in 30µl 0.05% acetic acid. Lactococcus lactis ( with two plasmids) was cultured overnight and diluted 250 times with GM17 agar before added to the plate. The final concentration of the cells was about 2×10^6 cells/milliliter. The plate was incubated for 1 da y. Concentrations of nisin were labeled. (B) log10 of the concentrati ons and diameters of the halo. (C) A linear curve w as made betw een t he diameters of the halo and log10s of the concentration of nisin. […]

M. luteus = experiment: Agar well diffusion assay; type: cell-based, Micrococcus luteus; details: 20 °C; estimated from halo diameter by nisin standard curve, relative to wt
Procedure: as §1, §2, §3, §4, §5, §6

L. lactis MG1363 = experiment: Agar well diffusion assay; type: cell-based, Lactococcus lactis; details: relative to wt
Procedure: as §1, §2, §3, §4, §5
(§7) Supplementary Figure 1. Relationship between concentration of nisin and diameter of the halos. (A) Agar well diffusion assay. Gradient concentration of nisin were made and dissolved in 30µl 0.05% acetic acid. Lactococcus lactis ( with two plasmids) was cultured overnight and diluted 250 times with GM17 agar before added to the plate. The final concentration of the cells was about 2×10^6 cells/milliliter. The plate was incubated for 1 da y. Concentrations of nisin were labeled. (B) log10 of the concentrati ons and diameters of the halo. (C) A linear curve w as made betw een t he diameters of the halo and log10s of the concentration of nisin.
(§8) (1 picture or pasted object on this page, not shown here)
(§9) Last Name a uthor 1 et al. Running Title
(§10) C = concentration of nisin d° = diameter of the halo of wild t ype […]

E. faecalis VE14089 = experiment: Agar well diffusion assay; type: cell-based, Enterococcus faecalis; details: estimated from halo diameter by nisin standard curve, relative to wt
Procedure: as §1, §2, §3, §4, §5, §7, §8, §9, §10

L. monocytogenes = experiment: Agar well diffusion assay; type: cell-based, Listeria monocytogenes; details: estimated from halo diameter by nisin standard curve, relative to wt
Procedure: as §1, §2, §3, §4, §5, §7, §8, §9, §10

Staphylococcus aureus = experiment: MIC in liquid culture; type: cell-based; details: MIC value of nisin divided by that of the analog
Procedure: as §1
(§11) The indicator strains were cultured until OD (600 nm) reached 0.5. Before MIC value test, the culture was diluted 1000 times to make the concentration of cells around 5 × 10^5 per milliliter. The test was performed using a temperature controlled plate reader [Tecan200 (Tecan Group AG)] and 96 well plate (Greiner Bio-one). 180 μl indicator strain culture mixed with 20 μl hinge region analogs with final concentration from 0.031 μg/ml–32 μg/ml was incubated at 30°C or 37°C for 18 h. OD (600 nm) was checked every 30 min. For aerobic strains, 2 min of shaking was performed before every check. The concentration of peptide without observed growth of indicator strains was considered as the MIC value.

Listeria monocytogenes = experiment: MIC in liquid culture; type: cell-based; details: MIC value of nisin divided by that of the analog
Procedure: as §1, §11

[1] = system: Bacillus cereus (L′29) 16; experiment: MIC in liquid culture; type: cell-based; details: MIC value of nisin divided by that of the analog
Procedure: as §1, §11

Bacillus cereus 4153 = experiment: MIC in liquid culture; type: cell-based; details: MIC value of nisin divided by that of the analog
Procedure: as §1, §11

Bacillus cereus 4147 = experiment: MIC in liquid culture; type: cell-based; details: MIC value of nisin divided by that of the analog
Procedure: as §1, §11

[2] = system: Lactococcus lactis MG1363; experiment: MIC in liquid culture; type: cell-based; details: MIC value of nisin divided by that of the analog
Procedure: as §1, §11

[3] = system: Streptococcus pneumoniae R6; experiment: MIC in liquid culture; type: cell-based; details: MIC value of nisin divided by that of the analog
Procedure: as §1, §11

Micrococcus luteus = experiment: MIC in liquid culture; type: cell-based; details: MIC value of nisin divided by that of the analog
Procedure: as §1, §11

B. sporothermodurans IC4 = experiment: Agar well diffusion assay; type: cell-based, Bacillus sporothermodurans; details: 30 °C; estimated from halo diameter by nisin standard curve, relative to wt
Procedure: as §1
as §2, with “B. sporothermodurans IC4 and B. cereus 4153 were first incubated with the peptides at 4°C for 2 weeks then moved to 30°C and incubated overnight.” left out
The antimicrobial activity of the hinge region analogs in solid media were tested by an agar well diffusion assay. The diameters of the halos were measured and the residual activity of the analogs were estimated according to the formula of the relationship between the concentration of nisin and the sizes of halos. […]
as §4
the concentration of nisin is in liner relationship with diameter of the halos ( Supplementary Fi g u re 1C). According to the formula (1) , the relative activity of the peptides compared to nisin can be calculated b y the formula ( 2) . […]

[4] = system: Enterococcus faecalis VE14089; experiment: MIC in liquid culture; type: cell-based; details: MIC value of nisin divided by that of the analog
Procedure: as §1, §11

[5] = system: Bacillus sporothermodurans IC4; experiment: MIC in liquid culture; type: cell-based; details: MIC value of nisin divided by that of the analog
Procedure: as §1, §11

[6] = 20 °C, estimated from halo diameter by nisin standard curve (halo diameter vs log of nisin concentration)
[7] = 30 °C, estimated from halo diameter by nisin standard curve

## C=C(NC(=O)[C@@H](NC(=O)[C@H](Cc1c[nH]cn1)NC(=O)[C@@H](NC(=O)[C@H](CO)NC(=O)[C@@H]1CS[C@@H](C)[C@H]2NC(=O)[C@H](C)NC(=O)[C@H](NC(=O)[C@H](CCCCN)NC(=O)[C@H](CCSC)NC(=O)[C@H](CC(C)C)NC(=O)[C@H](CC(N)=O)NC(=O)[C@@H]3CS[C@@H](C)[C@@H](NC(=O)[C@H](CCCCN)NC(=O)[C@@H]4CS[C@@H](C)[C@@H](NC(=O)[C@@H]5CSC[C@@H](NC(=O)/C(=C/C)NC(=O)[C@@H](N)[C@@H](C)CC)C(=O)N[C@@H]([C@@H](C)CC)C(=O)NC(=C)C(=O)N[C@@H](CC(C)C)C(=O)N5)C(=O)N5CCC[C@H]5C(=O)NCC(=O)N4)C(=O)NCC(=O)N[C@@H](C)C(=O)N[C@@H](CC(C)C)C(=O)N[C@@H](CCSC)C(=O)NCC(=O)N3)[C@H](C)SC[C@H](NC2=O)C(=O)N[C@@H](Cc2c[nH]cn2)C(=O)N1)[C@@H](C)CC)C(C)C)C(=O)N[C@@H](CCCCN)C(=O)O [+1]
S. aureus
  Residual activity: 27%
M. luteus
  Residual activity: 9%
L. lactis MG1363; [6]
  Residual activity: 122%
E. faecalis VE14089; 20 °C
  Residual activity: 72%
E. faecalis VE14089; 37 °C
  Residual activity: 82%
L. monocytogenes; 20 °C
  Residual activity: 72%
Staphylococcus aureus
  Residual activity of variants compared to nisin: 6%
Listeria monocytogenes
  Residual activity of variants compared to nisin: 25%
[1]
  Residual activity of variants compared to nisin: 25%
Bacillus cereus 4153
  Residual activity of variants compared to nisin: 25%
Bacillus cereus 4147
  Residual activity of variants compared to nisin: 25%
[2]
  Residual activity of variants compared to nisin: 25%
[3]
  Residual activity of variants compared to nisin: 17%
Micrococcus luteus
  Residual activity of variants compared to nisin: 25%

## C=C(NC(=O)[C@@H](NC(=O)[C@H](Cc1c[nH]cn1)NC(=O)[C@@H](NC(=O)[C@H](CO)NC(=O)[C@@H]1CS[C@@H](C)[C@H]2NC(=O)[C@H](C)NC(=O)[C@H](NC(=O)[C@H](CCCCN)NC(=O)[C@H](CCSC)NC(=O)[C@H](CC(C)C)NC(=O)[C@@H](NC(=O)[C@@H](NC(=O)[C@H](CC(N)=O)NC(=O)[C@@H]3CS[C@@H](C)[C@@H](NC(=O)[C@H](CCCCN)NC(=O)[C@@H]4CS[C@@H](C)[C@@H](NC(=O)[C@@H]5CSC[C@@H](NC(=O)/C(=C/C)NC(=O)[C@@H](N)[C@@H](C)CC)C(=O)N[C@@H]([C@@H](C)CC)C(=O)NC(=C)C(=O)N[C@@H](CC(C)C)C(=O)N5)C(=O)N5CCC[C@H]5C(=O)NCC(=O)N4)C(=O)NCC(=O)N[C@@H](C)C(=O)N[C@@H](CC(C)C)C(=O)N[C@@H](CCSC)C(=O)NCC(=O)N3)[C@@H](C)CC)C(C)C)[C@H](C)SC[C@H](NC2=O)C(=O)N[C@@H](Cc2c[nH]cn2)C(=O)N1)[C@@H](C)CC)C(C)C)C(=O)N[C@@H](CCCCN)C(=O)O [+3]
S. aureus
  Residual activity: 0%
M. luteus
  Residual activity: 7%
L. lactis MG1363; [6]
  Residual activity: 5%
L. lactis MG1363; [7]
  Residual activity: 3%
E. faecalis VE14089; 20 °C
  Residual activity: 6%
E. faecalis VE14089; 30 °C
  Residual activity: 9%
E. faecalis VE14089; 37 °C
  Residual activity: 14%
B. sporothermodurans IC4
  Residual activity: 10%
L. monocytogenes; 20 °C
  Residual activity: 3%
L. monocytogenes; 30 °C
  Residual activity: 3%
Staphylococcus aureus
  Residual activity of variants compared to nisin: <3%
Listeria monocytogenes
  Residual activity of variants compared to nisin: <25%
[1]
  Residual activity of variants compared to nisin: 13%
[4]
  Residual activity of variants compared to nisin: <21%
Bacillus cereus 4153
  Residual activity of variants compared to nisin: 13%
Bacillus cereus 4147
  Residual activity of variants compared to nisin: 25%
[5]
  Residual activity of variants compared to nisin: 17%
[2]
  Residual activity of variants compared to nisin: 13%
[3]
  Residual activity of variants compared to nisin: 13%
Micrococcus luteus
  Residual activity of variants compared to nisin: 25%

## C=C(NC(=O)[C@@H](NC(=O)[C@H](Cc1c[nH]cn1)NC(=O)[C@@H](NC(=O)[C@H](CO)NC(=O)[C@@H]1CS[C@@H](C)[C@H]2NC(=O)[C@H](C)NC(=O)[C@H](NC(=O)[C@H](CC(N)=O)NC(=O)[C@@H]3CS[C@@H](C)[C@@H](NC(=O)[C@H](CCCCN)NC(=O)[C@@H]4CS[C@@H](C)[C@@H](NC(=O)[C@@H]5CSC[C@@H](NC(=O)/C(=C/C)NC(=O)[C@@H](N)[C@@H](C)CC)C(=O)N[C@@H]([C@@H](C)CC)C(=O)NC(=C)C(=O)N[C@@H](CC(C)C)C(=O)N5)C(=O)N5CCC[C@H]5C(=O)NCC(=O)N4)C(=O)NCC(=O)N[C@@H](C)C(=O)N[C@@H](CC(C)C)C(=O)N[C@@H](CCSC)C(=O)NCC(=O)N3)[C@H](C)SC[C@H](NC2=O)C(=O)N[C@@H](Cc2c[nH]cn2)C(=O)N1)[C@@H](C)CC)C(C)C)C(=O)N[C@@H](CCCCN)C(=O)O [−2]
S. aureus
  Residual activity: 16%
M. luteus
  Residual activity: 0%
L. lactis MG1363; [6]
  Residual activity: 120%
L. lactis MG1363; [7]
  Residual activity: 91%
E. faecalis VE14089; 20 °C
  Residual activity: 36%
E. faecalis VE14089; 30 °C
  Residual activity: 77%
E. faecalis VE14089; 37 °C
  Residual activity: 76%
L. monocytogenes; 20 °C
  Residual activity: 82%
L. monocytogenes; 30 °C
  Residual activity: 76%
Staphylococcus aureus
  Residual activity of variants compared to nisin: <3%
Listeria monocytogenes
  Residual activity of variants compared to nisin: <25%
[1]
  Residual activity of variants compared to nisin: <13%
[4]
  Residual activity of variants compared to nisin: <6%
Bacillus cereus 4153
  Residual activity of variants compared to nisin: <13%
Bacillus cereus 4147
  Residual activity of variants compared to nisin: <13%
[5]
  Residual activity of variants compared to nisin: 13%
[2]
  Residual activity of variants compared to nisin: 6%
[3]
  Residual activity of variants compared to nisin: 13%
Micrococcus luteus
  Residual activity of variants compared to nisin: <25%
